Experimental data taken from patent US12091426B2, “Bifunctional degraders of hematopoietic progenitor kinase and therapeutic uses thereof” (Nurix Therapeutics, Inc., priority 2021, dated 2024).

Molecular target: T1, HPK1 (Homo sapiens, UniProt Q92918)
T1 construct: A HiBiT tag was introduced by CRISPR on the N terminus of HPK1 in Jurkat cells; host or cells: Jurkat cells (ATCC TIB-152), monoclonal line with CRISPR knock-in of HiBiT at the endogenous HPK1 locus
Assay: HPK1 Cellular HiBit Degradation Assay
Format: cell-based
Settings: HiBiT HPK1 Jurkat cells, 24 hrs; for DC50: concentration at which 50% of HPK1 was remaining, read-out: DC50 Category; for Dmax: Jurkat, read-out: Dmax Category
Outline: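 HiBiT-HPK1 Jurkat (CRISPR, N-term tag), 3×10^4 cells/well, RPMI 1640 + 10% FBS; CTMs 10 uM–0.1 nM, 11 pts; 24 hrs, 37° C/5% CO2; lytic HiBiT luminescence; % remaining vs DMSO, parental background subtracted; 4-parameter fit → DC50, Dmax.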

[1] = maximum degradation vs DMSO vehicle control

T1 sequence (Q92918 whole entry): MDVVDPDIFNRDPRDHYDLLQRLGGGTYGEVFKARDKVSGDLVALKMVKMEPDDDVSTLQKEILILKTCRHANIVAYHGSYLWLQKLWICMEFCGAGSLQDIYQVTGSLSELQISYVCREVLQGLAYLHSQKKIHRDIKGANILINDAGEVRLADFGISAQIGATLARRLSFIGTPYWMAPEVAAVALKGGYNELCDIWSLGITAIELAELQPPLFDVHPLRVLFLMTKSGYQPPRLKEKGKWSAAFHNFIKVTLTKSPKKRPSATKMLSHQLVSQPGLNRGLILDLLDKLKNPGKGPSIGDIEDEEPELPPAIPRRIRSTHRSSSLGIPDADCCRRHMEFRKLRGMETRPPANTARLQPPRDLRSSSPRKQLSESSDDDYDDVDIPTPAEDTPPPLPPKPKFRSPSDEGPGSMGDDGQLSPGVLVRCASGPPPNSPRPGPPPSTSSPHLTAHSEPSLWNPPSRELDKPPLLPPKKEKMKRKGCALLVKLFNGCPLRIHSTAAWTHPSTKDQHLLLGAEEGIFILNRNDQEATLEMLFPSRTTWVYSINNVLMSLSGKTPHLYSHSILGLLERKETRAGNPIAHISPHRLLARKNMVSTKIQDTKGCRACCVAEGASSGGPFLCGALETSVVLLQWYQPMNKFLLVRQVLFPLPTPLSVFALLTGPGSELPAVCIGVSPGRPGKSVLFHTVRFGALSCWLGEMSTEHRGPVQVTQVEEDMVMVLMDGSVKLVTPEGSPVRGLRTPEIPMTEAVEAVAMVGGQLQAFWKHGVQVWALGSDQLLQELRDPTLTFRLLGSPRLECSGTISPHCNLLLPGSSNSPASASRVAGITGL

DC50	Dmax [1]	Structure (SMILES)	Dmax Category [1]
< 100 nM	70 to 85%	CC(C)n1cnc2cc(-c3ccc4c(c3)N([C@H]3C[C@@H](N5CCCCC5)C3)C(=O)C43CCN(C(=O)C4CCN(C(=O)C5CCN(c6ccc(C7CCC(=O)NC7=O)cc6)CC5)CC4)CC3)nc(Nc3ccncc3F)c21 (stereo partly drawn) [Example 68, 3-(4-(4-(4-(6-(4-((3-fluoropyridin-4-yl)amino)-3-isopropyl-3H-imidazo[4,5-c]pyridin-6-yl)-2-oxo-1-((1S,3S)-3-(piperidin-1-yl)cyclobutyl)spiro[indoline-3,4′-piperidine]-1′-carbonyl)piperidine-1-carbonyl)piperidin-1-yl)phenyl)piperidine-2,6-dione]	
500 to 1000 nM	50 to 70%	CC(C)n1cnc2cc(-c3ccc4c(c3)N([C@H]3C[C@@H](N5CCCCC5)C3)C(=O)C43CCN(C(=O)C4(C)CCN(CC5CCN(c6ccc(C7CCC(=O)NC7=O)cn6)CC5)CC4)CC3)nc(NC3CC3)c21 (mixture of isomers) [Example 225, (3RS)-3-[6-(4-{[4-({6-[4-(cyclopropylamino)-3-(propan-2-yl)-3H-imidazo[4,5-c]pyridin-6-yl]-2-oxo-1-[(1S,3S)-3-(piperidin-1-yl)cyclobutyl]-1,2-dihydrospiro[indole-3,4′-piperidin]-1′-yl}carbonyl)-4-methylpiperidin-1-yl]methyl}piperidin-1-yl)pyridin-3-yl]piperidine-2,6-dione]	
100 to 500 nM	50 to 70%	CC(C)n1cnc2cc(-c3ccc4c(c3)N([C@H]3C[C@@H](N5CCCCC5)C3)C(=O)C43CCN(C(=O)C4CN(C(=O)C5CCN(c6ccc(C7CCC(=O)NC7=O)cn6)CC5)CCC4(F)F)CC3)nc(NC3CC3)c21 (mixture of isomers) [Example 285, (3RS)-3-(6-{4-[3-({6-[4-(cyclopropylamino)-3-(propan-2-yl)-3H-imidazo[4,5-c]pyridin-6-yl]-2-oxo-1-[(1S,3S)-3-(piperidin-1-yl)cyclobutyl]-1,2-dihydrospiro[indole-3,4′-piperidin]-1′-yl}carbonyl)-4,4-Difluoropiperidine-1-carbonyl]piperidin-1-yl}pyridin-3-yl)piperidine-2,6-dione]	
500 to 1000 nM	50 to 70%	CC(C)n1cnc2cc(-c3ccc4c(c3)N([C@H]3C[C@@H](N5CCCCC5)C3)C(=O)C43CCN(C(=O)c4ccc(C(=O)N5CCC(N(C)c6ccc(C7CCC(=O)NC7=O)cn6)CC5)cc4)CC3)nc(Nc3ccccc3F)c21 (mixture of isomers) [Example 140, (3RS)-3-{6-[(1-{4-[(6-{4-[(2-fluorophenyl)amino]-3-(propan-2-yl)-3H-imidazo[4,5-c]pyridin-6-yl}-2-oxo-1-[(1S,3S)-3-(piperidin-1-yl)cyclobutyl]-1,2-dihydrospiro[indole-3,4′-piperidin]-1′-yl)carbonyl]benzoyl}piperidin-4-yl)(methyl)amino]pyridin-3-yl}piperidine-2,6-dione]	
500 to 1000 nM	50 to 70%	CC(C)n1cnc2cc(-c3ccc4c(c3)N([C@H]3C[C@@H](N5CCCCC5)C3)C(=O)C43CCN(C(=O)c4ccc(C(=O)N5CCN(c6ccc7c(c6)C(=O)N(C6CCC(=O)NC6=O)C7=O)CC5)cc4)CC3)nc(Nc3ccncc3F)c21 (mixture of isomers) [Example 42, 2-[(3RS)-2,6-dioxopiperidin-3-yl]-5-(4-{4-[(6-{4-[(3-Fluoropyridin-4-yl)amino]-3-(propan-2-yl)-3H-imidazo[4,5-c]pyridin-6-yl}-2-oxo-1-[(1S,3S)-3-(piperidin-1-yl)cyclobutyl]-1,2-dihydrospiro[indole-3,4′-piperidin]-1′-yl)carbonyl]benzoyl}piperazin-1-yl)-2,3-dihydro-1H-isoindole-1,3-dione]	
< 100 nM	50 to 70%	CC(C)n1cnc2cc(-c3ccc4c(c3)N([C@H]3C[C@@H](N5CCCCC5)C3)C(=O)C43CCN(C(=O)[C@@H]4CCN(C(=O)C5CCN(c6ccc(C7CCC(=O)NC7=O)cn6)CC5)[C@@H]4C)CC3)nc(Nc3ccccc3F)c21 (mixture of isomers) [Example 249, (3RS)-3-(6-{4-[(2R,3R)-3-[(6-{4-[(2-fluorophenyl)amino]-3-(propan-2-yl)-3H-imidazo[4,5-c]pyridin-6-yl}-2-oxo-1-[(1S,3S)-3-(piperidin-1-yl)cyclobutyl]-1,2-dihydrospiro[indole-3,4′-piperidin]-1′-yl)carbonyl]-2-methylpyrrolidine-1-carbonyl]piperidin-1-yl}pyridin-3-yl)piperidine-2,6-dione]	
100 to 500 nM	50 to 70%	CC(C)n1cnc2cc(-c3ccc4c(c3)N([C@H]3C[C@@H](N5CCC[C@@H](F)C5)C3)C(=O)C43CCN(C(=O)C4(C)CCN(C(=O)C5CCN(c6ccc(C7CCC(=O)NC7=O)cc6)CC5)CC4)CC3)nc(NC3CC3)c21 (mixture of isomers) [Example 199, (3RS)-3-(4-{4-[4-({6-[4-(cyclopropylamino)-3-(propan-2-yl)-3H-imidazo[4,5-c]pyridin-6-yl]-2-oxo-1-[(1S,3S)-3-[(3R)-3-fluoropiperidin-1-yl]cyclobutyl]-1,2-dihydrospiro[indole-3,4′-piperidin]-1′-yl}carbonyl)-4-methylpiperidine-1-carbonyl]piperidin-1-yl}phenyl)piperidine-2,6-dione]	
500 to 1000 nM	50 to 70%	CC(C)n1cnc2cc(-c3ccc4c(c3)N([C@H]3C[C@@H](N5CCCCC5)C3)C(=O)C43CCN(C(=O)C[C@H]4CCCN(C(=O)CC5CCN(c6ccc(C7CCC(=O)NC7=O)cn6)CC5)C4)CC3)nc(NC3CC3)c21 (mixture of isomers) [Example 297, (3RS)-3-[6-(4-{2-[(3R)-3-(2-{6-[4-(cyclopropylamino)-3-(propan-2-yl)-3H-imidazo[4,5-c]pyridin-6-yl]-2-oxo-1-[(1S,3S)-3-(piperidin-1-yl)cyclobutyl]-1,2-dihydrospiro[indole-3,4′-piperidin]-1′-yl}-2-oxoethyl)piperidin-1-yl]-2-oxoethyl}piperidin-1-yl)pyridin-3-yl]piperidine-2,6-dione]	
< 100 nM	70 to 85%	CC(C)n1cnc2cc(-c3ccc4c(c3)N([C@H]3C[C@@H](N5CCCCC5)C3)C(=O)C43CCN(C(=O)[C@H]4CC[C@H](C(=O)N5CCC(N(C)c6ccc(C7CCC(=O)NC7=O)cc6)CC5)CC4)CC3)nc(Nc3ccncc3F)c21 (mixture of isomers) [Example 136, (3RS)-3-{4-[methyl({1-[(1R,4R)-4-[(6-{4-[(3-fluoropyridin-4-yl)amino]-3-(propan-2-yl)-3H-imidazo[4,5-c]pyridin-6-yl}-2-oxo-1-[(1S,3S)-3-(piperidin-1-yl)cyclobutyl]-1,2-dihydrospiro[indole-3,4′-piperidin]-11′-yl)carbonyl]cyclohexanecarbonyl]piperidin-4-yl})amino]phenyl}piperidine-2,6-dione]	
< 100 nM	70 to 85%	CC(C)n1cnc2cc(-c3ccc4c(c3)N([C@H]3C[C@@H](N5CCCCC5)C3)C(=O)C43CCN(C(=O)C(C)(C)N4CCN(C(=O)C5CCN(c6ccc(C7CCC(=O)NC7=O)cn6)CC5)CC4)CC3)nc(NC3CC3)c21 (mixture of isomers) [Example 188, (3RS)-3-(6-{4-[4-(1-{6-[4-(cyclopropylamino)-3-isopropylimidazo[4,5-c]pyridin-6-yl]-2-oxo-1-[(1S,3S)-3-(piperidin-1-yl)cyclobutyl]spiro[indole-3,4′-piperidin]-1′-yl}-2-methyl-1-oxopropan-2-yl)piperazine-1-carbonyl]piperidin-1-yl}pyridin-3-yl)piperidine-2,6-dione]	
< 100 nM	70 to 85%	CC(C)n1cnc2cc(-c3ccc4c(c3)N([C@H]3C[C@@H](N5CCCCC5)C3)C(=O)C43CCN(C(=O)C4(C)CCN(C(=O)[C@H]5CC[C@H](Oc6ccc(C7CCC(=O)NC7=O)cn6)CC5)CC4)CC3)nc(Nc3ccncc3F)c21 (mixture of isomers) [Example 106]	
< 100 nM	70 to 85%	CC(C)n1cnc2cc(-c3ccc4c(c3)N([C@H]3C[C@@H](N5CCCCC5)C3)C(=O)C43CCN(C(=O)C4(C)CCN(C(=O)C5CCN(c6ccc(C7CCC(=O)NC7=O)cc6)CC5)CC4)CC3)nc(NC3CC3)c21 (mixture of isomers) [Example 111, (3RS)-3-(4-{4-[4-({6-[4-(cyclopropylamino)-3-(propan-2-yl)-3H-imidazo[4,5-c]pyridin-6-yl]-2-oxo-1-[(1S,3S)-3-(piperidin-1-yl)cyclobutyl]-1,2-dihydrospiro[indole-3,4′-piperidin]-1′-yl}carbonyl)-4-methylpiperidine-1-carbonyl]piperidin-1-yl}phenyl)piperidine-2,6-dione]	

Structure (SMILES)	DC50	Dmax [1]	Dmax Category [1]
CC(C)n1cnc2cc(-c3ccc4c(c3)N(C3CC(N5CCCCC5)C3)C(=O)C43CCN(C(=O)CC4(C)CCN(C(=O)C5CCN(c6ccc(C7CCC(=O)NC7=O)cn6)CC5)CC4)CC3)nc(NC3CC3)c21 (racemic) [Example 149, (3RS)-3-(6-{4-[4-(2-{6-[4-(cyclopropylamino)-3-(propan-2-yl)-3H-imidazo[4,5-c]pyridin-6-yl]-2-oxo-1-[(1S,3S)-3-(piperidin-1-yl)cyclobutyl]-1,2-dihydrospiro[indole-3,4′-piperidin]-1′-yl}-2-oxoethyl)-4-methylpiperidine-1-carbonyl]piperidin-1-yl}pyridin-3-yl)piperidine-2,6-dione]	< 100 nM		B (B: >70%-<85%)
CC(C)n1cnc2cc(-c3ccc4c(c3)N([C@H]3C[C@@H](N5C6CCC5COC6)C3)C(=O)C43CCN(C(=O)C4(C)CCN(C(=O)[C@H]5CC[C@H](Oc6ccc(C7CCC(=O)NC7=O)cc6)CC5)CC4)CC3)nc(NC3CC3)c21 (mixture of isomers) [Example 193, (3RS)-3-(4-{[(1R,4R)-4-[4-({6-[4-(cyclopropylamino)-3-(propan-2-yl)-3H-imidazo[4,5-c]pyridin-6-yl]-2-oxo-1-[(1S,3S)-3-{3-oxa-8-Azabicyclo[3.2.1]octan-8-yl}cyclobutyl]-1,2-dihydrospiro[indole-3,4′-piperidin]-1′-yl}carbonyl)-4-methylpiperidine-1-carbonyl]cyclohexyl]oxy}phenyl)piperidine-2,6-dione]	100 to 500 nM	50 to 70%	
